According to paper PMC12469358, “Synthesis of novel phenoxyacetohydrazide compounds and evaluation therapeutic potential exhibit as anti-inflammatory and anti-angiogenic” (PLOS One, 2025):
Converted amounts (≈) assume the structure as drawn. “Also recorded” adds a separate entry of the source. Where two headings read alike, the source gives them in different places.

Legend:
[1] = system: rVEGF165-induced angiogenesis in chick chorioallantoic membrane (CAM); experiment: In vivo chorioallantoic membrane (CAM) assay; settings: for H&E staining: neovascular structures and inflammatory infiltration: Fig 23 legend, H&E staining of in vivo CAM
Experimental: The in vivo CAM assay was performed according to the standard protocol. All the eggs were wiped with 75% alcohol prior to incubation. Then the fertilized eggs were incubated at 37°C with 60% relative humidity. On the 11th day of incubation, all the eggs divided into three treatment groups contain minimum 6 eggs as mentioned below.
• Group I – Normal [PBS (Phosphate buffer saline) (10 mM Sodium phosphate mono basic+ 1.8 mM Sodium phosphate dibasic+140 mM sodium chloride, pH 7.4) alone] • Group II – Control [1µg of rVEGF165 alone] • Group III – 5 µg of 6e + 1 µg of rVEGF165.
A rectangular window was made in the egg shell and Whatman filter paper (3 mm diameter) containing with or without compound 6e (5 µg) was placed on the CAM and the window were sealed using sterile vegetable wrap. Windows were opened after 48h, i.e., on 13th day of incubation, observed by two independent observers and measured for change in the Micro Vessel Density (MVD) in the area beneath the cover slip and photographed using Sony steady shot DSC-W610 camera.

[2] = system: human red blood cell (HRBC) membrane; experiment: Human red blood cell (HRBC) membrane stabilization assay; type: cell-based; settings: for IC50: Homo sapiens, Erythrocyte
Experimental: The human red blood cell (HRBC) membrane stabilization method was employed to evaluate the anti-inflammatory activity of the compounds, as previously described. For test the in vitro anti-inflammatory activity of synthesized compounds (6e-h), blood samples were collected from healthy volunteers who had not taken NSAIDs for 14 days. The blood was mixed with an equal volume of sterilized Alsever’s solution, centrifuged at 3000 rpm, and the packed cells were washed with isotonic saline (0.9% w/v NaCl). A 10% cell suspension was then prepared using isotonic saline. The test compounds were dissolved in DMSO to prepare solutions at concentrations of 50, 100, 150, 200, and 250 μg/ml. For each concentration, a mixture containing 1 ml of phosphate buffer, 2 ml of hypotonic saline, and 0.5 ml of the HRBC suspension was prepared. The samples were incubated at 37°C for 30 minutes and centrifuged at 3000 rpm for 20 minutes. The hemoglobin content in the supernatant was determined spectrophotometrically at 560 nm. Indomethacin at the same concentrations (50–250 μg/ml) was used as the reference standard, and a control sample was prepared without the test compounds. The percentage hemolysis was calculated by considering the hemolysis in the control group as 100%. The percentage of HRBC membrane stabilization or protection was determined using the following formula:
percent protection=100−((OD of drug treated sample/OD of control) ×100).

[3] = system: alkali burn-induced corneal neovascularization (CNV); experiment: Alkali burn-induced corneal neovascularization; type: in vivo; settings: alkali-burnt cornea
Experimental: Corneal neovascularization (CNV) was induced through alkali injury following a standard protocol with minor modifications. Swiss albino rats were first examined to ensure the absence of ophthalmic diseases before the alkali burn procedure. The animals were divided into three groups, each comprising six animals (n = 6 per group):
• Group I: Normal, treated with phosphate-buffered saline (PBS). • Group II: Control group, treated with 1 µg of recombinant VEGF (rVEGF). • Group III: Treated group, receiving rVEGF165 ([…]) and compound 6e (5 µg/ml).
An alkali burn was induced in the right eye of animals in Groups II and III after administering general anesthesia via intraperitoneal injection of ketamine (1 ml/kg) and chlorpromazine (1 ml/kg). A 3-mm diameter piece of Whatman filter paper soaked in […] of 1 mol/L NaOH was applied to the center of the cornea for 30 seconds, followed by irrigation of the treated cornea with 60 ml of normal saline.
Group II animals were subsequently treated with 1 µg of rVEGF applied to the right eye. The extent of CNV was quantified through photographic documentation 48 hours after the alkali burn and rVEGF treatment. […] The inhibitory effect of compound 6e on neovascularization was evaluated through photographic documentation 24 hours after treatment with compound 6e.

[4] = system: rVEGF165-induced angiogenesis in CAM explants; experiment: Ex vivo CAM assay; type: in vivo, chick
[5] = system: carrageenan-induced paw edema; experiment: Carrageenan-induced paw edema; type: in vivo; settings: rat, 6e 25 mg/kg, 5 h after carrageenan injection
From the text: Female Swiss albino rats were selected for the study to evaluate the anti-inflammatory effects of compound 6e against carrageenan-induced paw edema. The animals were divided randomly into four groups, with each group consisting of six experimental animals (n = 6): • Group 1: Normal animals (untreated). • Group 2: Control group (saline-treated). • Group 3: Positive control group (indomethacin-treated). • Group 4: Animals treated with compound 6e. Prior to the experiment, animals in Group 2 were administered saline (5 mL/kg), animals in Group 3 received the positive control indomethacin (10 mg/kg), and animals in Group 4 were treated with compound 6e (25 mg/kg). All animals were left undisturbed in their respective cages for 2 hours.

[6] = system: tissue myeloperoxidase (MPO) activity in carrageenan-treated paws; experiment: Tissue myeloperoxidase (MPO) activity assay; type: in vivo; settings: rat, 6e 25 mg/kg, 4 hours after carrageenan
Experimental: Rats were treated either with or without positive control (indomethacin at 10 mg/kg body weight) or compound 6e (25 mg/kg body weight) 2 hours prior to the injection of carrageenan into the right hind paw. The activity of tissue myeloperoxidase (MPO) was assessed 4 hours post-carrageenan injection. Tissue samples were collected and placed in 0.75 ml of 80 mM phosphate-buffered saline (PBS, pH 5.4) containing 0.5% hexadecyltrimethylammonium bromide (HTAB). The samples were homogenized for 45 seconds at 0°C using a homogenizer. The homogenate was transferred into microfuge tubes, and the homogenizer vessel was rinsed with an additional 0.75 ml of HTAB in PBS. The wash was combined with the homogenate to yield a total sample volume of 1.5 ml, which was then centrifuged at 12,000 × g at 4°C for 15 minutes. For the MPO assay, 30 μl of the resulting supernatant was added to 96-well microtiter plates. To each well, 200 μl of a reaction mixture was added, consisting of 100 μl of 80 mM PBS (pH 5.4), 85 μl of 0.22 M PBS (pH 5.4), and 15 μl of 0.017% hydrogen peroxide. […] Enzyme activity was determined spectrophotometrically by measuring absorbance at 630 nm using a plate reader. Results were expressed as MPO activity per milligram of tissue (MOD/mg tissue). […] All samples were measured in six times (n = 6 technical replicates) for statistical accuracy.

[7] = Table 7, 50-250 µg concentration series, comparison with indomethacin, read-out: “IC50”
[8] = Table 7, 50-250 µg concentration series, comparison with indomethacin
[9] = Table 6 series 6a-h, read-out: HRBC membrane stabilization “IC50” Value

For `COc1ccc2c(c1)c(CC(=O)O)c(C)n2C(=O)c1ccc(Cl)cc1` [Indomethacin, reference compound], the “H&E staining: neovascular structures and inflammatory infiltration” value [1] was “Moderate reduction in neovascular structures”, the “% Inhibition” value ([2]; 50 µg) was 33.10% and the “% Inhibition” value ([2]; 100 µg) was 46.11%. The “% Inhibition” value ([2]; 150 µg) was 53.99%, the “% Inhibition” value ([2]; 200 µg) was 64.98% and the “% Inhibition” value ([2]; 250 µg) was 76.94%. The IC50 [2, 7] was 122 µg/mL (≈ 340 µM) and the ““IC50”” value [2, 8] was 122.01 µg/mL.

`O=C(CCCOc1cccc([N+](=O)[O-])c1)NNC(=O)C1CN(Cc2ccccc2)CCO1` (centres unmarked) [6h, 4-Benzyl-N’-(4-(3-nitrophenoxy)butanoyl)morpholine-2-carbohydrazide] was tested, and the IC50 [2, 9] was 255 µg/mL (≈ 576 µM).

`O=C(COc1ccc(Br)cc1)NNC(=O)C1CN(Cc2ccccc2)CCO1` (centres unmarked) [6b, 4-Benzyl-N’-(2-(4-bromophenoxy)acetyl)morpholine-2-carbohydrazide] gave an IC50 [2, 9] of 222 µg/mL (≈ 495 µM).

In the case of `Cc1ccc(OCC(=O)NNC(=O)C2CN(Cc3ccccc3)CCO2)c(C)c1` (centres unmarked) [6d, 4-Benzyl-N’-(2-(2,4-dimethylphenoxy)acetyl)morpholine-2-carbohydrazide], the IC50 [2, 9] is reported as 199 µg/mL (≈ 501 µM).

For `O=C(CCCOc1ccc(F)cc1)NNC(=O)C1CN(Cc2ccccc2)CCO1` (centres unmarked) [6e, 4-Benzyl-N’-(4-(4-fluorophenoxy)butanoyl)morpholine-2-carbohydrazide], the “total vessel length in the rat cornea” value [3] was “diminution in the total vessel length; also recorded: reduction in total vessel length”, the “corneal neovascularization (CNV)” value ([3]; rat, 6e 5 µg with rVEGF165 10 µg) was “significant decrease in CNV” and the “VEGF-induced angiogenic response, ex vivo CAM” value ([4]; co-administration with rVEGF165) was “Marked suppression of new blood vessel formation; also recorded: effectively inhibited this VEGF-induced angiogenic response in a dose-dependent manner”. For the same molecule, the “Total vessel length of ex-vivo CAM” value ([4]; rVEGF165-induced increase, n = 6) was “significantly attenuated”, the “rVEGF165-induced angiogenic response / neovascularization, in vivo CAM” value ([1]; 5 µg 6e + 1 µg rVEGF165, 48 h) was “inhibited this rVEGF165-induced angiogenic response in a dose-dependent manner; also recorded: Marked suppression of neovascularization” and the “H&E staining: neovascular structures and inflammatory infiltration” value [1] was “minimal inflammatory infiltration and absence of neovessel”. The “Total vessel length of in vivo CAM” value ([1]; versus control, n = 6) was “A significant reduction in vessel length”, the “paw swelling ratio (percent increase of paw volume)” value [5] was “statistically significant reduction in the paw swelling ratio; also recorded: significantly inhibited the ratio of paw swelling” and the “% Inhibition” value ([2]; 50 µg) was 28.88%. For the same molecule, the “% Inhibition” value ([2]; 100 µg) was 34.13%, the “% Inhibition” value ([2]; 150 µg) was 42.02% and the “% Inhibition” value ([2]; 200 µg) was 59.99%. For the same molecule, the “% Inhibition” value ([2]; 250 µg) was 67.86%, the IC50 [2, 9] was 155 µg/mL (≈ 373 µM) and the IC50 [2, 7] was 164 µg/mL (≈ 395 µM). For the same molecule, the ““IC50”” value [2, 8] was 165.988 µg/mL and the “MPO activity in carrageenan-treated paws” value [6] was “markedly prevented the elevation of MPO activity”.

For `O=C(COc1ccc(Cl)cc1)NNC(=O)C1CN(Cc2ccccc2)CCO1` (centres unmarked) [6a, 4-Benzyl-N’-(2-(4-chlorophenoxy)acetyl)morpholine-2-carbohydrazide], the IC50 [2, 9] was 311 µg/mL (≈ 770 µM).

With `Cc1ccccc1OCC(=O)NNC(=O)C1CN(Cc2ccccc2)CCO1` (centres unmarked) [6c, 4-Benzyl-N’-(2-(o-tolyloxy)acetyl)morpholine-2-carbohydrazide] the IC50 [2, 9] was 289 µg/mL (≈ 754 µM).

`O=C(CCCOc1ccc(Br)cc1)NNC(=O)C1CN(Cc2ccccc2)CCO1` (centres unmarked) [6g, 4-Benzyl-N’-(4-(4-bromophenoxy)butanoyl)morpholine-2-carbohydrazide] gave an IC50 [2, 9] of 279 µg/mL (≈ 586 µM).

Molecule `CC(C)c1ccc(OCC(=O)NNC(=O)C2CN(Cc3ccccc3)CCO2)c(C(C)C)c1` (centres unmarked) [6f, 4-Benzyl-N’-(2-(2,4-diisopropylphenoxy)acetyl)morpholine-2-carbohydrazide] has an IC50 [2, 9] of 301 µg/mL (≈ 664 µM).
